These results are taken from patent US20150031714A1, “METHODS AND COMPOSITIONS FOR PREVENTION OF ALLERGIC REACTION” (Baylor College of Medicine, priority 2013, published 2015).

The subject of this test is Stat3 (pY705). The test can be described thus: Immunoblot assay of IL-6-mediated phosphorylation of Stat3 in HepG2 cells. Format: cell-based. Conditions: Homo sapiens; Table 4; HepG2, compound 60 min, IL-6 30 ng/ml 30 min; read-out: pStat3 IC50. The procedure: Cells were then stimulated with IL-6 (30 ng/ml) for 30 min. Protein extracts of cells were separated by SDS-PAGE, blotted and developed serially with antibodies to pStat3, total Stat3 and β-actin. Blots were stripped between each antibody probing. The bands intensities of immunoblot were quantified by densitometry. The value of each pStat3 band's intensity was divided by each corresponding value of total Stat3 band intensity and the results normalized to the DMSO-treated control value and plotted as a function of the log compound concentration. The best-fit curves were generated based on 4 Parameter Logistic Model/Dose Response One Site/XLfit 4.2, IDBS. Each panel is representative of 3 or more experiments.
Immunoblot assay. The human hepatocellular carcinoma cell line (HepG2) was grown in 6-well plates under standard conditions. Cells were pretreated with compounds (0, 1, 3, 10, 30, 100 and 300 uM) for 1 hour then stimulated under optimal conditions with either interferon gamma (IFN-γ; 30 ng/ml for 30 min) to activate Stat1 or interleukin-6 (IL-6; 30 ng/ml for 30 min) to activate Stat3 (30-31). Cultures were then harvested and proteins extracted using high-salt buffer, as described (Shao et al., 2006). […]
EXP IIC. […] Band intensities are quantified by densitometry. […]

For orientation: IC50 means the concentration that gives 50% inhibition. Consider `O=C(O)c1ccc(C=CC(=O)c2ccc3c(c2)OCCO3)cc1` [Cpd3, 4-[3-(2,3-dihydro-1,4-benzodioxin-6-yl)-3-oxo-1-propen-1-yl]benzoic acid], for which the IC50 is 91 µM.

Regarding `CCOc1cc(C=C2C(=O)c3ccccc3C2=O)cc(Cl)c1OCc1cccc(C(=O)O)c1` [Cpd3-2, 3-({2-chloro-4-[(1,3-dioxo-1,3-dihydro-2H-inden-2-ylidene)methyl]-6-ethoxyphenoxy}methyl)benzoic acid], the IC50 came out at 144 µM.
